In ChEMBL document CHEMBL3822398, “Design, synthesis and in vitro biological evaluation of short-chain C12-sphinganine and its 1,2,3-triazole analogs as potential antimicrobial and anti-biofilm agents” (Eur J Med Chem, 2016):
In brackets after ≈: the same amount, converted by molar mass. Activity calls are given as the source filed them. The rule behind the calls is not given here.

How the values were obtained:
[1] = tested on: Staphylococcus aureus; experiment: Antibacterial activity against Staphylococcus aureus MTCC 96 incubated for 24 hrs at 37 degC by well diffusion method; type: functional; conditions: MTCC 96, 24 h
[2] = tested on: Bacillus subtilis; experiment: Antibacterial activity against Bacillus subtilis MTCC 121 incubated for 24 hrs at 37 degC by well diffusion method; type: functional; conditions: MTCC 121, 24 h
[3] = tested on: Staphylococcus aureus; experiment: Antibacterial activity against Staphylococcus aureus MLS16 MTCC 2940 incubated for 24 hrs at 37 degC by well diffusion method; type: functional; conditions: MLS16 MTCC 2940, 24 h
[4] = tested on: Micrococcus luteus; experiment: Antibacterial activity against Micrococcus luteus MTCC 2470 incubated for 24 hrs at 37 degC by well diffusion method; type: functional; conditions: MTCC 2470, 24 h
[5] = tested on: Raoultella planticola; experiment: Antibacterial activity against Klebsiella planticola MTCC 530 incubated for 24 hrs at 37 degC by well diffusion method; type: functional; conditions: MTCC 530, 24 h
[6] = tested on: Escherichia coli; experiment: Antibacterial activity against Escherichia coli MTCC 739 incubated for 24 hrs at 37 degC by well diffusion method; type: functional; conditions: MTCC 739, 24 h
[7] = tested on: Pseudomonas aeruginosa; experiment: Antibacterial activity against Pseudomonas aeruginosa MTCC 2453 incubated for 24 hrs at 37 degC by well diffusion method; type: functional; conditions: MTCC 2453, 24 h
[8] = tested on: Candida albicans; experiment: Antifungal activity against Candida albicans MTCC 183 incubated for 24 hrs at 30 degC by well diffusion method; type: functional; conditions: MTCC 183, 24 h
[9] = tested on: Candida albicans; experiment: Antifungal activity against Candida albicans MTCC 227 incubated for 24 hrs at 30 degC by well diffusion method; type: functional; conditions: MTCC 227, 24 h
[10] = tested on: Candida albicans; experiment: Antifungal activity against Candida albicans MTCC 854 incubated for 24 hrs at 30 degC by well diffusion method; type: functional; conditions: MTCC 854, 24 h
[11] = tested on: Candida albicans; experiment: Antifungal activity against Candida albicans MTCC 1637 incubated for 24 hrs at 30 degC by well diffusion method; type: functional; conditions: MTCC 1637, 24 h
[12] = tested on: Candida albicans; experiment: Antifungal activity against Candida albicans MTCC 3017 incubated for 24 hrs at 30 degC by well diffusion method; type: functional; conditions: MTCC 3017, 24 h
[13] = tested on: Candida albicans; experiment: Antifungal activity against Candida albicans MTCC 3018 incubated for 24 hrs at 30 degC by well diffusion method; type: functional; conditions: MTCC 3018, 24 h
[14] = tested on: Candida albicans; experiment: Antifungal activity against Candida albicans MTCC 3958 incubated for 24 hrs at 30 degC by well diffusion method; type: functional; conditions: MTCC 3958, 24 h
[15] = tested on: Candida albicans; experiment: Antifungal activity against Candida albicans MTCC 4748 incubated for 24 hrs at 30 degC by well diffusion method; type: functional; conditions: MTCC 4748, 24 h
[16] = tested on: Candida albicans; experiment: Antifungal activity against Candida albicans MTCC 7315 incubated for 24 hrs at 30 degC by well diffusion method; type: functional; conditions: MTCC 7315, 24 h
[17] = tested on: Candida parapsilosis; experiment: Antifungal activity against Candida parapsilosis MTCC 1744 incubated for 24 hrs at 30 degC by well diffusion method; type: functional; conditions: Lodderomyces parapsilosis, MTCC 1744, 24 h
[18] = tested on: [Candida] aaseri; experiment: Antifungal activity against Candida aaseri MTCC 1962 incubated for 24 hrs at 30 degC by well diffusion method; type: functional; conditions: Yamadazyma aaseri, MTCC 1962, 24 h
[19] = tested on: Nakaseomyces glabratus; experiment: Antifungal activity against Candida glabrata MTCC 3019 incubated for 24 hrs at 30 degC by well diffusion method; type: functional; conditions: MTCC 3019, 24 h
[20] = tested on: Pichia kudriavzevii; experiment: Antifungal activity against Candida krusei MTCC 3020 incubated for 24 hrs at 30 degC by well diffusion method; type: functional; conditions: MTCC 3020, 24 h
[21] = tested on: Pichia sporocuriosa; experiment: Antifungal activity against Issatchenkia hanoiensis MTCC 4755 incubated for 24 hrs at 30 degC by well diffusion method; type: functional; conditions: MTCC 4755, 24 h
[22] = tested on: Staphylococcus aureus; experiment: Bactericidal activity against Staphylococcus aureus MTCC 96 incubated for 24 hrs; type: functional; conditions: MTCC 96, 24 h
[23] = tested on: Bacillus subtilis; experiment: Bactericidal activity against Bacillus subtilis MTCC 121 incubated for 24 hrs; type: functional; conditions: MTCC 121, 24 h
[24] = tested on: Staphylococcus aureus; experiment: Bactericidal activity against Staphylococcus aureus MLS16 MTCC 2940 incubated for 24 hrs; type: functional; conditions: MLS16 MTCC 2940, 24 h
[25] = tested on: Micrococcus luteus; experiment: Bactericidal activity against Micrococcus luteus MTCC 2470 incubated for 24 hrs; type: functional; conditions: MTCC 2470, 24 h
[26] = tested on: Raoultella planticola; experiment: Bactericidal activity against Klebsiella planticola MTCC 530 incubated for 24 hrs; type: functional; conditions: MTCC 530, 24 h
[27] = tested on: Escherichia coli; experiment: Bactericidal activity against Escherichia coli MTCC 739 incubated for 24 hrs; type: functional; conditions: MTCC 739, 24 h
[28] = tested on: Candida albicans; experiment: Fungicidal activity against Candida albicans MTCC 183 incubated for 24 hrs; type: functional; conditions: MTCC 183, 24 h
[29] = tested on: Candida albicans; experiment: Fungicidal activity against Candida albicans MTCC 227 incubated for 24 hrs; type: functional; conditions: MTCC 227, 24 h
[30] = tested on: Candida albicans; experiment: Fungicidal activity against Candida albicans MTCC 854 incubated for 24 hrs; type: functional; conditions: MTCC 854, 24 h
[31] = tested on: Candida albicans; experiment: Fungicidal activity against Candida albicans MTCC 1637 incubated for 24 hrs; type: functional; conditions: MTCC 1637, 24 h
[32] = tested on: Candida albicans; experiment: Fungicidal activity against Candida albicans MTCC 3017 incubated for 24 hrs; type: functional; conditions: MTCC 3017, 24 h
[33] = tested on: Candida albicans; experiment: Fungicidal activity against Candida albicans MTCC 3018 incubated for 24 hrs; type: functional; conditions: MTCC 3018, 24 h
[34] = tested on: Candida albicans; experiment: Fungicidal activity against Candida albicans MTCC 3958 incubated for 24 hrs; type: functional; conditions: MTCC 3958, 24 h
[35] = tested on: Candida albicans; experiment: Fungicidal activity against Candida albicans MTCC 4748 incubated for 24 hrs; type: functional; conditions: MTCC 4748, 24 h
[36] = tested on: Candida albicans; experiment: Fungicidal activity against Candida albicans MTCC 7315 incubated for 24 hrs; type: functional; conditions: MTCC 7315, 24 h
[37] = tested on: Candida parapsilosis; experiment: Fungicidal activity against Candida parapsilosis MTCC 1744 incubated for 24 hrs; type: functional; conditions: Lodderomyces parapsilosis, MTCC 1744, 24 h
[38] = tested on: [Candida] aaseri; experiment: Fungicidal activity against Candida aaseri MTCC 1962 incubated for 24 hrs; type: functional; conditions: Yamadazyma aaseri, MTCC 1962, 24 h
[39] = tested on: Nakaseomyces glabratus; experiment: Fungicidal activity against Candida glabrata MTCC 3019 incubated for 24 hrs; type: functional; conditions: MTCC 3019, 24 h
[40] = tested on: Pichia kudriavzevii; experiment: Fungicidal activity against Candida krusei MTCC 3020 incubated for 24 hrs; type: functional; conditions: MTCC 3020, 24 h
[41] = tested on: Pichia sporocuriosa; experiment: Fungicidal activity against Issatchenkia hanoiensis MTCC 4755 incubated for 24 hrs; type: functional; conditions: MTCC 4755, 24 h
[42] = tested on: Candida albicans; experiment: Antibiofilm activity against Candida albicans MTCC 227 after 24 hrs by crystal violet staining based assay; type: functional, organism-based; conditions: MTCC 227, 24 h
[43] = tested on: Micrococcus luteus; experiment: Antibiofilm activity against Micrococcus luteus MTCC 2470 after 24 hrs by crystal violet staining based assay; type: functional, organism-based; conditions: MTCC 2470, 24 h
[44] = tested on: Staphylococcus aureus; experiment: Antibiofilm activity against Staphylococcus aureus MTCC 96 after 24 hrs by crystal violet staining based assay; type: functional, organism-based; conditions: MTCC 96, 24 h
[45] = tested on: Candida albicans; experiment: Induction of ROS accumulation in Candida albicans MTCC 227 sessile cells at 2 to 8 ug/ml incubated for 24 hrs by DCFH-DA dye based microplate reader analysis; type: functional, organism-based

For CCCCCCCCC[C@@H](O)[C@H](CO)n1cc(-c2cccc(O)c2)nn1, the MIC [1] was 7.8 mg/L (≈ 21.6 µM), the MIC [2] was 7.8 mg/L (≈ 21.6 µM) and the MIC [3] was 7.8 mg/L (≈ 21.6 µM). For the same compound, the MIC [4] was 3.9 mg/L (≈ 10.8 µM), the MIC [5] was 15.6 mg/L (≈ 43.2 µM) and the MIC [6] was > 250 mg/L. The MIC [7] was > 250 mg/L, the MIC [8] was 7.8 mg/L (≈ 21.6 µM) and the MIC [9] was 3.9 mg/L (≈ 10.8 µM). The MIC [10] was 3.9 mg/L (≈ 10.8 µM), the MIC [11] was 15.6 mg/L (≈ 43.2 µM) and the MIC [12] was 7.8 mg/L (≈ 21.6 µM). For the same compound, the MIC [13] was 7.8 mg/L (≈ 21.6 µM), the MIC [14] was 15.6 mg/L (≈ 43.2 µM) and the MIC [15] was 7.8 mg/L (≈ 21.6 µM). It also gave an MIC [16] of 31.2 mg/L (≈ 86.3 µM), an MIC [17] of 15.6 mg/L (≈ 43.2 µM) and an MIC [18] of 7.8 mg/L (≈ 21.6 µM). For the same compound, the MIC [19] was 7.8 mg/L (≈ 21.6 µM), the MIC [20] was 15.6 mg/L (≈ 43.2 µM) and the MIC [21] was 7.8 mg/L (≈ 21.6 µM). For the same compound, the MBC [22] was 7.8 mg/L (≈ 21.6 µM), the MBC [23] was 15.6 mg/L (≈ 43.2 µM) and the MBC [24] was 15.6 mg/L (≈ 43.2 µM). The MBC [25] was 3.9 mg/L (≈ 10.8 µM), the MBC [26] was 15.6 mg/L (≈ 43.2 µM) and the MBC [27] was > 250 mg/L. For the same compound, the MFC [28] was 15.6 mg/L (≈ 43.2 µM), the MFC [29] was 3.9 mg/L (≈ 10.8 µM) and the MFC [30] was 7.8 mg/L (≈ 21.6 µM). The MFC [31] was 15.6 mg/L (≈ 43.2 µM), the MFC [32] was 7.8 mg/L (≈ 21.6 µM) and the MFC [33] was 15.6 mg/L (≈ 43.2 µM). It also gave an MFC [34] of 31.2 mg/L (≈ 86.3 µM), an MFC [35] of 15.6 mg/L (≈ 43.2 µM) and an MFC [36] of 31.2 mg/L (≈ 86.3 µM). The MFC [37] was 15.6 mg/L (≈ 43.2 µM), the MFC [38] was 15.6 mg/L (≈ 43.2 µM) and the MFC [39] was 7.8 mg/L (≈ 21.6 µM). The MFC [40] was 31.2 mg/L (≈ 86.3 µM), the MFC [41] was 7.8 mg/L (≈ 21.6 µM) and the IC50 [42] was 1.9 mg/L (≈ 5.26 µM). The IC50 [43] was 2.1 mg/L (≈ 5.81 µM), the IC50 [44] was 2.9 mg/L (≈ 8.02 µM) and the Activity [45] was “Active”.
